{"source": "patent US20250296988A1", "about": "“COMBINATION THERAPY” (ViiV Healthcare Company, priority 2020, published 2025)", "key": {"[1]": {"system": "broad range of HIV-1 strains", "conditions": "cited from earlier work"}, "HIV-1NL4-3": {"system": "HIV-1NL4-3", "experiment": "Two-drug combination anti-HIV cytoprotection assay in MT-4 cells (MTS endpoint, MacSynergy II analysis)", "type": "cell-based", "procedure": "Provided below is an evaluation of the anti-HIV-1 activity and cytotoxicity of N6LS in two drug combination studies with Cabotegravir. N6LS was produced using standard methods described in the art. Stock solutions were prepared as listed in Table 4 and were thawed at room temperature on each day of assay setup to generate fresh working drug dilutions that were used that day in the assays. Working dilutions were not stored for re-use in subsequent experiments performed on different days. For each combination assay, N6LS was evaluated using a 20 nM high-test concentration with seven additional serial half-log dilutions. Each dilution of N6LS was tested in combination with five dilutions of the anti-HIV drug, Cabotegravir. In all cases the final DMSO concentration was <0.25%, which has been previously shown to have no effect in the described assays.\nFor cell preparation, MT-4 cells (obtained from the NIH AIDS Research and Reference Reagent Program) were passaged in T-75 flasks prior to use in the antiviral assay. On the day preceding the assay, the cells were split 1:2 to assure they were in an exponential growth phase at the time of infection. Total cell and viability quantification were performed using a hemacytometer and trypan blue exclusion. Cell viability needed to be greater than 95% for the cells to be utilized in the assay. The cells were re-suspended in tissue culture medium and added to the drug-containing microtiter plates in a volume of 110 μL and at a seeding density of 5.0×10^3 cells/well.\nFor virus preparation, the virus used for these tests was the CXCR4-tropic virus strain HIV-1NL4-3. This virus was obtained from the NIH AIDS Research and Reference Reagent Program and was grown in MT-4 cells for the production of stock virus pools. For each assay, a pre-titered aliquot of virus was removed from the freezer (−80° C.) and allowed to thaw slowly to room temperature in a biological safety cabinet. The virus was re-suspended and diluted into tissue culture medium such that the amount of virus added to each well, in a volume of 50 μL, was the amount determined to give between 85 to 95% cell-killing at 6 days post infection.\nFor Plate Format, a checkerboard plate format was used to test five concentrations of Cabotegravir with eight concentrations of N6LS. Combination antiviral efficacy was evaluated on three identical assay plates (i.e., triplicate measurements) that included cell control wells (cells only) and virus control wells (cells plus virus). Combination cytotoxicity was evaluated in parallel on two identical assay plates (i.e., duplicate measurements) that included cell control wells. Antiviral efficacy and cellular toxicity were monitored by MTS staining at the experimental endpoint.\nFor MTS Endpoint for cell viability, at assay termination, the soluble tetrazolium-based dye MTS (CellTiter 96 Reagent, Promega) was added to each well to determine cell viability and quantify compound toxicity. MTS is metabolized by the mitochondria enzymes of metabolically active cells to yield a soluble formazan product, allowing the rapid quantitative analysis of cell viability and compound cytotoxicity. […] At termination of the assay, 20 μL of MTS reagent was added per well and the microtiter plates were then incubated for 3-4 hours at 37° C., 5% CO2 for the HIV cytoprotection assay; the incubation intervals were chosen based on empirically determined times for optimal MTS reduction. Adhesive plate sealers were used in place of the lids, the sealed plates were inverted several times to mix the soluble formazan product and the plates were read spectrophotometrically at 490/650 nm with a Molecular Devices SpectraMax i3 plate reader.\nCombination antiviral assays were performed with MT-4 cells utilizing HIV-1NL4-3, as described above. For each combination assay, five concentrations of Cabotegravir were tested with eight concentrations of N6LS. […]"}, "[2]": {"conditions": "in combination with N6LS, 95% confidence values, experiment 1"}, "[3]": {"conditions": "in combination with N6LS, 95% confidence values, experiment 2"}, "[4]": {"conditions": "in combination with N6LS, 95% confidence values, experiment 3"}, "[5]": {"conditions": "in combination with N6LS, 95% confidence values, n = 3"}}}
{"smiles": "C[C@H]1CO[C@@H]2Cn3cc(C(=O)NCc4ccc(F)cc4F)c(=O)c(O)c3C(=O)N12", "note": "[Cabotegravir, N-((2,4-Difluorophenyl)methyl)-6-hydroxy-3-methyl-5,7-dioxo-2,3,5,7,11,11a hexahydro (1,3) oxazolo (3,2-a)pyrido (1,2-d) pyrazine-8-carboxamide]", "values": [{"measurement": "potency and antiviral activity", "setting": "[1]", "result": "subnanomolar potency"}, {"measurement": "Drug-drug interaction of the combination", "setting": "HIV-1NL4-3; combination of N6LS with Cabotegravir", "result": "mainly synergistic or additive interactions"}, {"measurement": "Antagonism Volume, Result 1", "setting": "HIV-1NL4-3; [2]", "result": "−45.27", "unit": "nM^2%"}, {"measurement": "Synergy Volume, Result 1", "setting": "HIV-1NL4-3; [2]", "result": 2.32, "unit": "nM^2%"}, {"measurement": "Antagonism Volume, Result 2", "setting": "HIV-1NL4-3; [3]", "result": 0, "unit": "nM^2%"}, {"measurement": "Synergy Volume, Result 2", "setting": "HIV-1NL4-3; [3]", "result": 187.5, "unit": "nM^2%"}, {"measurement": "Antagonism Volume, Result 3", "setting": "HIV-1NL4-3; [4]", "result": "−39.56", "unit": "nM^2%"}, {"measurement": "Synergy Volume, Result 3", "setting": "HIV-1NL4-3; [4]", "result": 61.7, "unit": "nM^2%"}, {"measurement": "Mean Antagonism Volume", "setting": "HIV-1NL4-3; [5]", "result": "−28.28", "unit": "nM^2"}, {"measurement": "Mean Synergy Volume", "setting": "HIV-1NL4-3; [5]", "result": 83.84, "unit": "nM^2"}]}
